From US11464782B2, “Method of treating pain or interstitial cystitis using indole compound” (Japan Tobacco Inc., priority 2018, dated 2022)

Legend:
[1] = tested on: NGF-induced thermal hyperalgesia; assay: NGF-induced thermal hyperalgesia in rats (plantar test, paw withdrawal latency); assay type: in vivo, rat
Protocol: In order to induce a pain-related behavior (withdrawal behavior), NGF was injected into the plantar area of the left hind paw of rats and the thermal latencies/mechanical thresholds were measured. The effects of Compound A on these withdrawal behaviors were investigated. At 2 days before the injection of NGF, the thermal latencies or mechanical thresholds were measured for acclimation to the experimental environment. On the day before injection of NGF, body weights and values of the thermal latencies or mechanical thresholds were obtained. 50 μL of NGF solution was injected intraplantar to left hind paw of rats. 0.5 μg/site of NGF was selected in the evaluation of thermal stimuli and 1 μg/site was selected in that of mechanical stimuli. A monohydrochloride of Compound A (1, 3, or 10 mg/kg) was administered orally at the same time as the NGF injection. The latencies to thermal stimuli were measured at 3 and 6 hours after injection of NGF solution, and the thresholds to mechanical stimuli were measured at 1, 3 and 6 hours after injection of NGF solution. The evaluation was performed as a blind test of each group. The thermal latency was measured using a plantar test apparatus. An infrared heat stimuli was delivered to the plantar area of the hind paw and the time to withdraw the paw from the heat source was recorded automatically as the thermal latency. The measurement was performed 5 times for both hind paws of each animal, the averages of the last 3 values in each hind paw were accounted as the thermal latencies of each animal. The measurement for acclimation was performed only 3 times.

[2] = tested on: NGF-induced mechanical hyperalgesia; assay: NGF-induced mechanical hyperalgesia in rats (pressure analgesy-meter, paw withdrawal threshold); assay type: in vivo, rat
Protocol: In order to induce a pain-related behavior (withdrawal behavior), NGF was injected into the plantar area of the left hind paw of rats and the thermal latencies/mechanical thresholds were measured. The effects of Compound A on these withdrawal behaviors were investigated. At 2 days before the injection of NGF, the thermal latencies or mechanical thresholds were measured for acclimation to the experimental environment. On the day before injection of NGF, body weights and values of the thermal latencies or mechanical thresholds were obtained. 50 μL of NGF solution was injected intraplantar to left hind paw of rats. 0.5 μg/site of NGF was selected in the evaluation of thermal stimuli and 1 μg/site was selected in that of mechanical stimuli. A monohydrochloride of Compound A (1, 3, or 10 mg/kg) was administered orally at the same time as the NGF injection. The latencies to thermal stimuli were measured at 3 and 6 hours after injection of NGF solution, and the thresholds to mechanical stimuli were measured at 1, 3 and 6 hours after injection of NGF solution. The evaluation was performed as a blind test of each group. The mechanical threshold was measured using a pressure analgesy-meter. A mechanical stimulus (pressure) increased at a constant rate was added to the hind paw, and the pressure under load until animals withdrew its hind paw or vocalization was recorded as the mechanical threshold (mmHg).

[3] = tested on: subjects with active rheumatoid arthritis; assay: Pain evaluation in rheumatoid arthritis human clinical trial (pain NRS); assay type: in vivo
Protocol: Compound A was evaluated in a multicenter, randomized, double-blind, placebo-controlled, parallel-group study in subjects with active rheumatoid arthritis. Subjects were randomized to receive orally placebo or an amount of monohydrochloride Compound A sufficient to provide 50 mg, 100 mg, 150 mg, or 200 mg of free form, once daily for 12 weeks.
Pain was evaluated using a Numerical Rating Scale (NRS) by subjects. The pain NRS represents the severity of their arthritis pain during the past 3 days using an 11-point scale from 0 (no pain) to 10 (maximum pain). An evaluation was made of how much NRS decreased from baseline NRS after drug administration.
Data from EOT (end of treatment), at 2 weeks, and at 12 weeks was obtained. EOT is a measurement point generally used in clinical studies. In a 12-week study, it refers to all analysis at the 12-week time point. However, since some subjects will have discontinued the study midway, the data at the time of discontinuation is treated as the EOT for these subjects (for example, data for week 8 is used as EOT for subjects who discontinued in week 8). 2-week (subjects who completed 2 weeks in full) and 12-week (subjects who completed 12 weeks in full) data are also presented.
Change in pain NRS was evaluated in two subgroups of patients, those with higher baseline pain levels (median baseline pain NRS≥8.0) and those with lower baseline pain levels (median baseline pain NRS<8.0). […] Although the magnitude of decrease in pain NRS was different between lower and higher baseline pain NRS subgroups, both subgroups ultimately achieved a pain NRS score of approximately 4.

[4] = tested on: CYP-induced cystitis model mice; assay: Mouse cyclophosphamide (CYP)-induced cystitis model, lower abdominal licking time; assay type: in vivo; conditions: 3, 6 or 10 mg/mL solutions at 10 mL/kg oral once per day Days 7-9
Protocol: The inhibitory effect of Compound A on lower abdominal licking time was evaluated in a mouse CYP-induced cystitis model. The evaluation was performed according to M. Fujita et al., Eur J Pain. 20 (2016) 79-91. Male C57BL/6J mice (Charles River Laboratories Japan, Inc.) were used as the experimental animals.
Once per day for four days (Days 1-4) 20 mg/mL of CYP (Sigma) dissolved in saline solution was intraperitoneally administered to a vehicle group, a Compound A administration group, and an anti-NGF antibody group at a volume of 10 mL/kg, and saline solution was intraperitoneally administered to a sham group at a volume of 10 mL/kg. A monohydrochloride of Compound A was dissolved in 0.5% methyl cellulose (MC) to prepare 3 mg/mL, 6 mg/mL, and 10 mg/mL solutions of Compound A. […]
The behavior of the mice was recorded for 90 minutes using a video camera prior to the initial administration of CYP (Pre) and on Day 7, Day 8, and Day 10, and the lower abdominal licking time (seconds) was measured. […] The mean values of the licking times of the individual animals were calculated for each group, and the results are shown in FIG. 11.

[5] = at 6 hours after NGF injection, oral
[6] = compared with the vehicle, 1, 3, 10 mg/kg oral, dose related
[7] = rheumatoid arthritis subjects, 50-200 mg oral once daily

For `C[C@@H](C(=O)N(C)c1ccc2cc(-c3n[nH]c4c3CCC(C)(C)C4)[nH]c2c1)N1CCOCC1` [Compound A, N-[2-(6,6-dimethyl-4,5,6,7-tetrahydro-1H-indazol-3-yl)-1H-indol-6-yl]-N-methyl-(2S)-2-(morpholin-4-yl)propanamide], the “dose from which significant effects were observed (thermal latency)” value [1, 5] was no less than 3 mg/kg, the “effect on the decrease in the thermal latencies induced by NGF” value [1, 6] was “prevented the decrease in the thermal latencies induced by NGF” and the “dose from which significant effects were observed (mechanical threshold)” value [2, 5] was no less than 3 mg/kg. The “effect on the decrease in the mechanical thresholds induced by NGF” value [2, 6] was “prevented the decrease in the mechanical thresholds induced by NGF”, the “pain NRS score ultimately achieved” value ([3]; both lower (<8.0) and higher (≥8.0) baseline pain NRS subgroups, 50-200 mg oral once daily for 12 weeks) was “approximately 4” and the “duration of anti-pain effects (long-lasting)” value [3, 7] was 12 weeks. For the same compound, the “time to anti-pain effects (rapid)” value [3, 7] was no more than 2 weeks, the “pain in subjects having severe pain” value ([3]; subjects having pain greater than or equal to 8 on the NRS scale) was “reduce pain” and the “decrease in pain NRS by baseline pain subgroup” value ([3]; subjects with higher baseline pain levels (NRS≥8.0) versus lower (NRS<8.0)) was “Larger decreases in pain NRS were observed in subjects that began treatment with higher baseline pain levels”. For the same compound, the “lower abdominal licking time” value [4] was “reduced lower abdominal licking time”.
